# Data: patent US20220112187A1, “PYRAZOLOPYRIDINE AMINE COMPOUNDS FOR THE TREATMENT OF AUTOIMMUNE DISEASE” (Hoffmann-La Roche Inc., priority 2018, published 2022)
# Target: T1, human TLR8 (Homo sapiens, UniProt Q9NR97)
# T1 sequence (Q9NR97 27-1041): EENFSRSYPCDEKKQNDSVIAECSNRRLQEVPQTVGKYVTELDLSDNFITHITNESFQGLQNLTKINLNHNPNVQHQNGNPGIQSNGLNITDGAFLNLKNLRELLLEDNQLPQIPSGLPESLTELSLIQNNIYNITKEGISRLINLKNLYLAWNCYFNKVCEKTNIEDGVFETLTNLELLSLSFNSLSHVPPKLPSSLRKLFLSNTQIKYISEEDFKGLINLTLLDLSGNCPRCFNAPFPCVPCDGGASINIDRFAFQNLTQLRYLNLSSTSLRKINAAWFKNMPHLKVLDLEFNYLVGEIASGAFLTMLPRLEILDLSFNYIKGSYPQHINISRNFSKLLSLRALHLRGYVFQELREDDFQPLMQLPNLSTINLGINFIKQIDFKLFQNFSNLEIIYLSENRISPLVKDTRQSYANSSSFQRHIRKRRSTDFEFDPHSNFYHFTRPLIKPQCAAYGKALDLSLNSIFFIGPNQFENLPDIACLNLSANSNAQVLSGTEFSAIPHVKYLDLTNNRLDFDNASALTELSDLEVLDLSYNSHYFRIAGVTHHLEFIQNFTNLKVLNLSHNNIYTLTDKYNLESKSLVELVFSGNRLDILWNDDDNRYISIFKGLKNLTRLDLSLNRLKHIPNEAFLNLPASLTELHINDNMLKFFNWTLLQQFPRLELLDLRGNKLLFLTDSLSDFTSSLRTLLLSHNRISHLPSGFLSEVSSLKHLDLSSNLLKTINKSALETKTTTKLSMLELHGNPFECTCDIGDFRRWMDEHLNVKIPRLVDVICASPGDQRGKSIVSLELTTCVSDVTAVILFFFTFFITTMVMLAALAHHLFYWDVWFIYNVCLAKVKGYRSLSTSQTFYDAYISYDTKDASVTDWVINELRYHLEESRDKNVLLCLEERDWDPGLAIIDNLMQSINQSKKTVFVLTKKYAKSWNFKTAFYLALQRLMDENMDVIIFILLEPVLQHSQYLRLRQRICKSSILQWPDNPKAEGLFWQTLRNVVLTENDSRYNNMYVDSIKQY
# Assay: HEK293-Blue-hTLR-8 cells assay (SEAP reporter, R848 stimulation)
# Format: cell-based
# Conditions: HEK293-Blue-hTLR8 cells, R848 ligand, 20 hrs incubation
# Summary of the method: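 Antagonist mode: HEK293-Blue-hTLR8 cells with serially diluted compound (1% DMSO final) plus R848 (10 μL of 60 uM stock) for 20 hrs at 37° C. Supernatant NF-κB/AP-1-driven SEAP measured with QUANTI-Blue substrate, 2 hrs at 37° C, absorbance 620–655 nm.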
row,IC50,Structure (SMILES)
1,380 nM,"C[C@@H]1CN(c2ccc(C#N)n3nccc23)C[C@H](CN2CCN(C(=O)CN)CC2)O1 [Example 14, 4-[(2S,6R)-2-[[4-(2-aminoacetyl)piperazin-1-yl]methyl]-6-methyl-morpholin-4-yl]pyrazolo[1,5-a]pyridine-7-carbonitrile]"
2,340 nM,"C[C@@H]1CN(c2ccc(C#N)n3nccc23)C[C@H](CN2CCC3(CN(C)CCO3)C2)O1 (stereo partly drawn) [Example 76, 4-[(2R,6S)-2-methyl-6-[(9-methyl-6-oxa-2,9-diazaspiro[4.5]decan-2-yl)methyl]morpholin-4-yl]pyrazolo[1,5-a]pyridine-7-carbonitrile]"
